In PMC9925730, “Controlled sequential in situ self-assembly and disassembly of a fluorogenic cisplatin prodrug for cancer theranostics” (Nature Communications, 2023):
Values joined by “and” are separate entries in the source; they are usually repeats but may differ in a detail not shown here. Equal values may be shown once.

Tests used:
HeLa cells = assay: Depletion of intracellular GSH; format: cell-based, human; set-up: key to Intracellular GSH level after treatment (Supplementary Table S2): GSH content in fmol/cell; conditions: for Intracellular GSH level after treatment (Supplementary Table S2): blank (before treatment) mean 12.88
Description: Supplementary Tables 1-13 Supplementary Table 1. ICP-OES analysis of Pt in HeLa cells. a Pt drugs Pt element per cell Percentage of Pt element (fmol/cell) b taken up by cells (%) c P-CyPt 24.60 ± 3.5 36.9 ± 5.3 […] 1.73 ± 0.2 2.6 ± 0.3 CDDP 0.73 ± 0.09 1.1 ± 0.1 P-CyPt + Na3VO4 0.07 ± 0.01 0.1 ± 0.01 a HeLa cells were untreated or pre-treated with Na3VO4 (10 mM) for 20 min and then incubated with indicated Pt drug (10 μM) for 1 h. Then, the cells were trypsinized, collected, and the cell numbers were counted and digested with trace metal concentrated HNO3 (65~70%) and HCl (36~38%). The amount of Pt element was determined by ICP-OES. b Pt per cell represents the average amount of Pt element in one HeLa cell, which was calculated by dividing the total amount of Pt element in cells by the cell number. c Percentage of Pt taken up by cells was calculated by dividing the total amount of Pt elements in cells by the amount of Pt drugs added. Values denote mean ± s.d. (n = 3 independent experiments). Supplementary Table 2. Comparison of the intracellular GSH in HeLa cells before and after incubation with different Pt drugs. a Pt [GSH] before treatment [GSH] drugs (fmol/cell) [GSH] after treatment (fmol/cell) depletion b CDDP 11.81 ± 1.7 8.3% […] 11.71 ± 1.6 9.1% 12.88 ± 1.5 P-CyPt 8.07 ± 0.8 37.3% a HeLA cells were untreated or treated with different Pt drugs for 2 h. The cells were washed with PBS for three times, and replaced with fresh medium and incubated for another 24 h. After that, the cells were trypsinized, centrifuged and counted. The cell pellets were dispersed, lysed via sonication, and ultracentrifuged to obtain supernatant. The GSH content (nPt) in the supernatant was measured by a reported detection method. The content of GSH per cell ([GSH]) before and after treatment (nB and nA) was calculated according to the formula: […] GSH depletion: The GSH depletion (Δ) was calculated according to the formula: %Δ = (nB - nA)/ nB. Values denote mean ± s.d. (n = 3 independent experiments). 27 page 45: DNA […]-stained with 5x loading buffer in the TAE buffer and the resultant gel visualized by Gel DocTM XR+ (Bio-Rad) system. Depletion of intracellular GSH. HeLa cells (2×10^5 cells/well) in 2 mL DMEM medium were seeded onto 6-well plates and allowed to grow overnight. Then cells were then treated with […], or CDDP (10 μM), respectively. After that, cells were digested with trypsin and washed with PBS for 3 times. Then, cell pellets were dispersed in pre-chilled extraction solution (1 mL, 0.1 M potassium phosphate buffer containing 0.1% Triton, 0.6% sulfosalicylic acid, and 5 mM EDTA, pH 7.4) and sonicated with an US probe on ice for 2 min. To ensure that cells were lysed completely, the solution was further frozen and thawed twice. Finally, the solution was centrifuged at 3000 g at 4 °C for 4 min. The supernatant was taken to measure the GSH content using commercial GSH detection kit, according to a reported procedure (Nat. Protoc. 2006, 1, 3159). MCTS imaging and cytotoxicity. The three-dimensional multicellular spheroids (MCTS) of HeLa were cultured according to the method previously described (Nat. Protoc. 2009, 4, 309) with minor modifications. Briefly, a well of 96-well plates was covered by 50 μL of hot agarose solution (1.5 w/v %) and then cooled to form a layer of agaropectin. HeLa cells were seeded to the agaropectin-coated well at a density of 2×10^3 cells/well, and incubated to grow into spheroids. DMEM medium was replaced with fresh medium every 2 days until the diameter of tumor spheroids grows near 400 μm. Then, the MCSs were incubated with 10 μM P-CyPt or […] for 1 h, washed with PBS for 3 times. Blank DMEM medium was added, and incubated for another 24 h. After that, PI (4 μM) was added and incubated for 1 h. The medium was removed, and the spheroids were gently washed with PBS (×1), which was then carefully transferred to a glass bottom dish. […]

[1] = Body weight of mice with orthotopic HepG2/Luc liver tumors; format: in vivo; conditions: individual samples, in g (unit assumed)
[2] = as above; format: in vivo; conditions: mean of 3, in g (unit assumed)
[3] = Urine and faeces analysis by HPLC (mCy-containing compounds); format: in vivo, mice
[4] = HeLa cells, Pt drug 2 h, then fresh medium 24 h
[5] = Time period 0-2 h, individual mice, matrix and injected agent not given
[6] = Time period 0-2 h, mean of 3 mice, matrix and injected agent not given
[7] = Time period 2-4 h, individual mice
[8] = Time period 2-4 h, mean of 3 mice
[9] = Time period 4-8 h, individual mice
[10] = Time period 4-8 h, mean of 3 mice
[11] = Time period 8-12 h, mean of 3 mice
[12] = after i.v. preformed PtIVNPs, 2-4 h
[13] = after i.v. preformed PtIVNPs, 4-8 h
[14] = after i.v. preformed PtIVNPs, 8-12 h

Structure (SMILES): [NH2][Pt]([NH2])([Cl])[Cl] [CDDP, cisplatin]
- [GSH] after treatment (HeLa cells; [4]): 11.81 ± 1.7 fmol/cell
- [GSH] depletion (HeLa cells; [4]): 8.3% and ~ 8.3%
- Intracellular GSH level after treatment (Supplementary Table S2) (HeLa cells; individual samples): 10.2784 and 11.5154 and 13.6407
- Intracellular GSH level after treatment (Supplementary Table S2) (HeLa cells; mean of 3 samples): 11.81
- GSH-depletion (HeLa cells; relative to blank (before treatment)): 8.30%
- Body weight of mice (Supplementary Fig. 34) ([1]; time 0 d): 19.83 and 20.11 and 22.01
- Body weight of mice (Supplementary Fig. 34) ([1]; time 3 d): 18.72 and 20.66 and 21.22
- Body weight of mice (Supplementary Fig. 34) ([1]; time 6 d): 17.7 and 19.43 and 21.14
- Body weight of mice (Supplementary Fig. 34) ([1]; time 9 d): 17.17 and 18.45 and 20.33
- Body weight of mice (Supplementary Fig. 34) ([1]; time 12 d): 16.32 and 17.76 and 19.54
- Body weight of mice (Supplementary Fig. 34) ([1]; time 15 d): 16.24 and 17.17 and 19.09
- Body weight of mice (Supplementary Fig. 34) ([2]; time 0 d): 20.65
- Body weight of mice (Supplementary Fig. 34) ([2]; time 3 d): 20.2
- Body weight of mice (Supplementary Fig. 34) ([2]; time 6 d): 19.4233
- Body weight of mice (Supplementary Fig. 34) ([2]; time 9 d): 18.65
- Body weight of mice (Supplementary Fig. 34) ([2]; time 12 d): 17.8733
- Body weight of mice (Supplementary Fig. 34) ([2]; time 15 d): 17.5

Structure (SMILES): CC1(C)C(/C=C/C2=C3Oc4cc(O)c(Cl)cc4C=C3CCC2)=[N+](CCCNC(=O)[C@@H](Cc2ccccc2)NC(=O)[C@@H](Cc2ccccc2)NC(=O)CCC(=O)[O][Pt]([NH2])([NH2])([OH])([Cl])[Cl])c2ccccc21 [CyPt]
- Compound found in excreta (%), Supplementary Table S5 [3, 5]: 1.0169% and 1.15% and 0.9269%
- Compound found in excreta (%), Supplementary Table S6 [3, 5]: 0.0316% and 0.04969% and 0.02632%
- Compound found in excreta (%), Supplementary Table S7 [3, 5]: 0%
- Compound found in excreta (%), Supplementary Table S8 [3, 5]: 0.5086% and 0.616% and 0.02021%
- Compound found in excreta (%), Supplementary Table S5 [3, 6]: 1.03%
- Compound found in excreta (%), Supplementary Table S6 [3, 6]: 0.0359%
- Compound found in excreta (%), Supplementary Table S7 [3, 6]: 0.00%
- Compound found in excreta (%), Supplementary Table S8 [3, 6]: 0.38%
- Compound found in excreta (%), Supplementary Table S5 [3, 7]: 0.5615% and 0.6076% and 0.4976%
- Compound found in excreta (%), Supplementary Table S6 [3, 7]: 0.965% and 1.15% and 0.7153%
- Compound found in excreta (%), Supplementary Table S7 [3, 7]: 2.308% and 2.538% and 1.332%
- Compound found in excreta (%), Supplementary Table S8 [3, 7]: 12.9072% and 11.8054% and 9.624%
- Compound found in excreta (%), Supplementary Table S5 [3, 8]: 0.56%
- Compound found in excreta (%), Supplementary Table S6 [3, 8]: 0.94%
- Compound found in excreta (%), Supplementary Table S7 [3, 8]: 2.06%
- Compound found in excreta (%), Supplementary Table S8 [3, 8]: 11.45%
- Compound found in excreta (%), Supplementary Table S5 [3, 9]: 0.2738% and 0.2968% and 0.2509%
- Compound found in excreta (%), Supplementary Table S6 [3, 9]: 10.4273% and 10.6083% and 7.985%
- Compound found in excreta (%), Supplementary Table S7 [3, 9]: 3.373% and 3.391% and 1.995%
- Compound found in excreta (%), Supplementary Table S8 [3, 9]: 11.1798% and 12.4002% and 9.36%
- Compound found in excreta (%), Supplementary Table S5 [3, 10]: 0.27%
- Compound found in excreta (%), Supplementary Table S6 [3, 10]: 9.67%
- Compound found in excreta (%), Supplementary Table S7 [3, 10]: 2.92%
- Compound found in excreta (%), Supplementary Table S8 [3, 10]: 10.98%
- Compound found in excreta (%), Supplementary Table S8 ([3]; Time period 8-12 h, individual mice): 1.288% and 2.706% and 1.988%
- Compound found in excreta (%), Supplementary Table S5 [3, 11]: 0.00%
- Compound found in excreta (%), Supplementary Table S6 [3, 11]: 0.76%
- Compound found in excreta (%), Supplementary Table S7 [3, 11]: 1.17%
- Compound found in excreta (%), Supplementary Table S8 [3, 11]: 1.99%
- percentage excreted to the faeces (HPLC) ([3]; after i.v. P-CyPt, 2-4 h): 0.94 ± 0.22%
- percentage excreted to the urine (HPLC) ([3]; after i.v. P-CyPt, 2-4 h): 0.56 ± 0.055%
- percentage excreted to the faeces (HPLC) ([3]; after i.v. P-CyPt, 4-8 h): 9.67 ± 1.46% and ~ 9.7%
- percentage excreted to the urine (HPLC) ([3]; after i.v. P-CyPt, 4-8 h): 0.27 ± 0.23%
- percentage excreted to the faeces (HPLC) ([3]; after i.v. P-CyPt, 8-12 h): 0.76 ± 0.14%
- percentage excreted to the urine (HPLC) ([3]; after i.v. P-CyPt, 8-12 h): 0%
- percentage excreted to the faeces (HPLC) [3, 12]: 11.44 ± 1.67%
- percentage excreted to the urine (HPLC) [3, 12]: 2.06 ± 0.64%
- percentage excreted to the faeces (HPLC) [3, 13]: 10.98 ± 1.53%
- percentage excreted to the urine (HPLC) [3, 13]: 2.92 ± 0.80%
- percentage excreted to the faeces (HPLC) [3, 14]: 1.99 ± 0.71%
- percentage excreted to the urine (HPLC) [3, 14]: 1.16 ± 0.43%
